Patent US20220000952A1, “METHOD PREPARING ANTRODIA CINNAMOMEA EXTRACT AND ANTRODIA CINNAMOMEA COMPOSITION, AND PHARMACEUTICAL COMPOSITION” (priority 2018, published 2022)

Test system: bone marrow inhibition of chemotherapeutic drug Cisplatin
Assay: Efficacy test for improving the bone marrow inhibition of chemotherapeutic drug cisplatin in C57BL/6 immune normal mice
Format: in vivo
Conditions: cisplatin alone 20 mg/kg i.p. day 1
Protocol: The animals used in this study were C57B116 mice which were commercially available from Taiwan Experimental Animal Centers and six weeks old. The feeding temperature was controlled to be 25±2° C., the illumination time was 08: 00-20: 00, sufficient feed and drinking water were provided daily, and the padding was replaced twice a week.
The cisplatin (cis, 20 mg/kg) was administered by intraperitoneal injection on the first day. The Antrodia cinnamomea composition (400 mg/kg) was administered in a tube-teed manner on the 1st to 5th day, and the time of tube feeding on the first day was 4 hours after the chemotherapeutic drug was administered. The animal groups were the control group,Cis and Antrodia cinnamomea compositions (AC) respectively, with 6 mice in each group and 18 mice in 3 groups.
The experimental animals were sacrificed in a CO2 manner on the sixth day, the thigh bones of the mice were surgically removed, both ends of the bones were cut, bone marrow cells were flushed out, and after centrifugation and washing, the cells were added to MethoCult M3334 medium or MethoCult M3234 medium, and allowed to stand in a humidified incubator containing 5% CO2 at 37° C. and cultured, the former was cultured for 48 hours to observe by microscope and calculate the number of CFU-E (Colony-forming unit-erythroid) colonies, and the latter was cultured for 7 days to observe by microscope and calculate the number of CFU-GM(Colony-forming unit-granulocyte, macrophage) colonies. The colony numbers of CFU-E and CFU-GM were counted by observation in the whole field of view.
Before the experimental animals were sacrificed, the whole blood was collected in a cheek blood collection manner, and anticoagulant whole blood was used for complete blood count (CBC) to determine the number of peripheral white blood cells.
One-way analysis of variance (One-Way ANOVA) was used for data analysis. When the analysis result reached a significant level, Fisher LSD was used for subsequent comparison.

Q: What does the source list for `N.N.[Cl][Pt][Cl]` [cisplatin]?
A: number of white blood cells (peripheral blood) (FIG. 5): can reduce the number of white blood cells; number of CFU-GM (myeloid leukocyte precursor cells) (FIG. 6): inhibits the number of myeloid leukocyte precursor cells CFU-GM; number of CFU-E (bone marrow red blood cell precursor cells) (FIG. 7): can inhibit the number of bone marrow red blood cell precursor cells CFU-E
